According to US20230280275A1, “PHOTOACTIVATABLE VIBRATIONAL PROBES AND USES THEREOF” (California Institute of Technology, priority 2021, published 2023):
One block for each compound: values may come before it.

Experiments:
[1] = Spontaneous Raman / hyperspectral SRS spectroscopy of probes and uncaged alkynes; type: physicochemical; settings: for Raman Peak: cell silent region, model systems; for RIE (relative Raman intensity to EdU): 10 mM EdU (H2O) as standard
From the text: (§1) An integrated laser (picoEMERALD, Applied Physics and Electronics, Inc.) was used as a light source for both pump and Stokes beams. It produces 2 ps pump (tunable from 770 nm - 990 nm, bandwidth 0.5 nm, spectral bandwidth ~ 7 cm-1 ) and Stokes (1031.2 nm, spectral bandwidth 10 cm-1 ) beams with 80 MHz repetition rate. Stokes beam is modulated at 20 MHz by an internal electro-optic modulator. The spatially and temporally overlapped pump and Stokes beams are introduced into an inverted multiphoton laser scanning microscopy (FV3000, Olympus), and then focused onto the sample by a 25X water objective (XLPLN25XWMP, 1.05 N.A., Olympus). Transmitted pump and Stokes beams are collected by a high N.A. condenser lens (oil immersion, 1.4 N.A., Olympus) and pass through a bandpass filter (893/209 BrightLine, 25 mm, AVR Optics) to filter out Stokes beam. A large area (10×10 mm) Si photodiode (S3590-09, Hamamatsu) is used to measure the remaining pump beam intensity. 64 V DC voltage was used on the photodiode to increase saturation threshold and reduce response time. The output current is terminated by a 50 Ω terminator and pre-filtered by an 19.2-23.6-MHz band-pass filter (BBP-21.4+, Mini-Circuits) to reduce laser and scanning noise. The signal is then demodulated by a lock-in amplifier (SR844, Stanford Research Systems) at the modulation frequency. The in-phase X output is fed back to the Olympus IO interface box (FV30-ANALOG) of the microscope. Image acquisition speed is limited by 30 µs time constant set for the lock-in amplifier. Correspondingly, we use 80 µs pixel dwell time, which gives a speed of 8.5 s frame-1 for a 320-by-320-pixel field of view. Laser powers are monitored through image acquisition by an internal power meter and power fluctuation are controlled within 5% by the laser system. 16-bit grey scale images are acquired by Fluoview software. SRS spectra were acquired by fixing the Stokes beam at 1031.2 nm and scanning the pump beam through the designated wavelength range point by point. 10 mM EdU (H2O) sample was used as a standard to give RIE of different probes. Fluorescence images were collected using the same Olympus FV3000 confocal microscope with CW laser excitation (405, 488, 561 and 640 nm, Coherent OBIS LX laser) and standard bandpass filter sets. The correlation coefficients (Pearson’s R value) between SRS images and fluorescence images were calculated using ‘Coloc 2’ tool of ImageJ.
To perform spontaneous Raman spectroscopy, spontaneous Raman spectra were acquired using an upright confocal Raman spectrometer (Horiba Raman microscope; Xplora plus). A 532 nm YAG laser is used to illuminate the sample with a power of 12 mW on sample through a 100 x, N.A. 0.9 objective (MPLANN; Olympus) with 100 µm slit and 500 µm hole. Spectro/Raman shift center was set to be 2000.04 cm-1 . With a 1200 grating, Raman shift ranges from 690.81 cm-1 to 3141.49 cm-1 was acquired to cover whole biological relevant Raman peaks. The acquired spectra were processed by the LabSpec 6 software for baseline correction.
Cyclopropenone caging has been previously adopted for photoactivation and subsequent biorthogonal labeling of fluorophores in fluorescence microscopy. […] Herein the alkyne Raman signal generation from photo-DIBO light-activation was first measured (FIG. 1A). […] Compared to 5-ethynyl-2′-deoxyuridine (EdU), the well-adopted benchmark for Raman intensity quantification, the relative Raman intensity to EdU (RIE) of the strained alkyne DIBO is only 1.8 (Table 1). […] Given this, it is reasoned that diphenylcyclopropenone (i.e. cyclopropenone-caged 1-yne, 1-cyclo, 1, FIG. 1A) should be a better photoactivatable Raman scaffold with higher Raman sensitivity after uncaging. Indeed, UV-uncaging of 1-cyclo (1), which started from a similarly weak Raman peak at 1860 cm^-1 from photo-DIBO, produced an intense sharp peak for 1-yne (2) at 2226 cm^-1 (FIG. 1B, dashed black vs solid blue spectra) with an improved RIE values to about 4

[2] = UV-Vis absorption spectra; type: physicochemical; settings: 20 uM in DMSO
Experimental: UV-Vis absorption spectra were recorded on a Varian Cary 50 UV-Vis Spectrophotometer (Agilent).

[3] = Photoactivation (UV-uncaging) monitored by time-series spontaneous Raman spectra; type: physicochemical
Experimental: The 365 nm UV light used to activate cyclopropenones comes from a UV handlamp (Analytik Jena UVP EL Series Lamp, UVLS-24, 4 Watt, 2 UV 254/365 nm, typically used for TLC monitoring in organic synthesis). The power of 365 nm UV of this handlamp was measured to be 15 mW/cm2 on samples.
Next, the photo-uncaging kinetics for both 1-cyclo (1) and 2-cyclo (3) were compared. […] With 365 nm lamp illumination, the characteristic peaks of cyclopropenones (~1860 cm^-1) continue to drop while the alkyne peaks (2226 cm^-1) gradually increase for both molecules (FIG. 1D). […] The progression of the UV-activation reactions could also be confirmed by the change in the corresponding absorption spectra (FIG. 6).

lipid droplets = test: Live-cell photo-uncaging lipid droplets imaging, SRS/fluorescence co-localization; type: cell-based; settings: live HeLa cells, SRS vs Lipid spot 610
From the text: as §1
Lipid droplets imaging by Me-LD (15): Cells were incubated in 20 µM Me-LD (15) with complete DMEM medium for 30 minutes in the incubator. Cells were washed with PBS three times before imaging. For colocalization, 0.5 x LipidSpot™ 610 (Biotium, #70069) was used to stain cells for 20 minutes. For photo-uncaging, 405 nm laser was used to scan the selected field of view for 2 minutes (1.6 mW).
Lipid droplets imaging by Cyclo-LD (17): Cells were washed with PBS for three times before labeling. Cells were then incubated in 20 µM Cyclo-LD (17) with PBS for 30 minutes in the incubator. Cells were washed with PBS three times before imaging. For colocalization, 0.5 x LipidSpot™ 610 (Biotium, #70069) was used to stain cells for 20 minutes. For photo-uncaging, 405 nm laser (1.6 mW) was used to scan the selected field of view for 2 minutes.

live HeLa cells = test: SRS imaging of live HeLa cells incubated with unmethylated probes before and after 405 nm illumination; type: cell-based; settings: 20 µM, 30 minutes of labeling; 2226 cm^-1 channel after 405 nm
Experimental: FIG. 7 provides exemplary results from SRS imaging of live HeLa cells incubated with 1-cyclo (1, 20 µM, 30 minutes of labeling, top) and Cyclo-Mito (7, 20 µM, 30 minutes of labeling, bottom) at the CH3 (2940 cm^-1) channel, and the expected uncaged alkyne channel (2226 cm^-1) before and after 405 nm illumination. Scale bar: 10 µm.
An integrated laser (picoEMERALD, Applied Physics and Electronics, Inc.) was used as a light source for both pump and Stokes beams. It produces 2 ps pump (tunable from 770 nm - 990 nm, bandwidth 0.5 nm, spectral bandwidth ~ 7 cm-1 ) and Stokes (1031.2 nm, spectral bandwidth 10 cm-1 ) beams with 80 MHz repetition rate. Stokes beam is modulated at 20 MHz by an internal electro-optic modulator. […] Laser powers are monitored through image acquisition by an internal power meter and power fluctuation are controlled within 5% by the laser system. […] Fluorescence images were collected using the same Olympus FV3000 confocal microscope with CW laser excitation (405, 488, 561 and 640 nm, Coherent OBIS LX laser) and standard bandpass filter sets. The correlation coefficients (Pearson’s R value) between SRS images and fluorescence images were calculated using ‘Coloc 2’ tool of ImageJ.

endoplasmic reticulum = test: Live-cell photo-uncaging ER imaging, SRS/fluorescence co-localization; type: cell-based; settings: live HeLa cells
From the text: as §1
ER imaging: Cells were incubated in 40 µM Me-ER (14) with complete DMEM medium for 2 hours in the incubator. Cells were washed with PBS three times before imaging. For colocalization, 0.5 µM ER-Tracker™ Red (Invitrogen, E34250) was used to stain cells for 1 hour. For photo-uncaging, 405 nm laser was used to scan the selected field of view for 2 minutes (1.6 mW).

lysosomes = test: Live-cell photo-uncaging lysosomes imaging, SRS/fluorescence co-localization; type: cell-based
From the text: as §1
Lysosomes imaging: Cells were incubated in 30 µM Me-Lyso (13) with complete DMEM medium for 2 hours in the incubator. Cells were washed with PBS three times before imaging. For colocalization, 0.4 x LysoView™ 488 (Biotium, #70067) was used to stain cells for 30 minutes. For photo-uncaging, 405 nm laser was used to scan the selected field of view for 2 minutes (1.6 mW).

[4] = (HP)LC-MS for assessing the stability of cyclopropenone probes in physiological condition; type: physicochemical; settings: 10 mM cysteine (PBS), 37° C., HPLC trace
Experimental: The assessed probe was first dissolved in DMSO and later diluted in 10 mM cysteine (Sigma, 168149, dissolved in PBS) solution or DMEM (Corning, 35-015-CV) medium. Analytical HPLC coupled with mass spectrometry (LC-MS) was performed on Agilent 1290 infinity LC system using ZORBAX RRHD Eclipse Plus C18, 95 Å, 2.1 x 50 mm, 1.8 µm column with Agilent 6140 Series Quadrupole LCMS / LC-MS / MSD / Mass Spectrometer System. The mobile phase is water (0.1% AcOH) and acetonitrile with running method of gradient 5%-95% acetonitrile (1 ml/min, 4 min for total running time). The mass spectrometry detection region ranges from 100 to 800 AMU. The data shown in the main figures and supplementary figures are the absorption (280.8 nm) intensity traces.
It was hypothesized that this was likely because the cyclopropenone structures are susceptible to nucleophilic attack, leading to ring-opened α,β-unsaturated acids derivatives. Cysteines, glutathione, and other biological thiols are strong nucleophiles and could easily deactivate cyclopropenones. The stability of 1-cyclo (1) in 10 mM cysteine phosphate-buffered saline (PBS) at 37° C. was therefore tested, mimicking physiological conditions.

mitochondria = test: Live-cell photo-uncaging mitochondria imaging, SRS/fluorescence co-localization; type: cell-based; settings: live HeLa cells
From the text: as §1
Mitochondria imaging: Cells were incubated in 16 µM Me-Mito (12) or Me-Mito^13C (16) with complete DMEM medium for 40 minutes in the incubator. Cells were washed with PBS three times before imaging. For colocalization, 80 nM MitoTracker™ Deep Red (Invitrogen, M22426) was used to stain cells for 25 minutes. […]

[5] = SRS vs ER tracker red, Fl/2205 cm^-1 channel
[6] = live HeLa cells, SRS vs Lysoview 488, Fl/2205 cm^-1 channel
[7] = SRS vs Mitotracker deep red, Fl/2225 cm^-1 channel

Compound: O=c1c(-c2ccccc2)c1-c1ccc(OCCOCCOCCCCCCCl)cc1 [Cyclo-LD (17), 2-(4-(2-(2-((6-chlorohexyl)oxy)ethoxy)ethoxy)phenyl)-3-phenylcycloprop-2-en-1-one]
correlation coefficient (Pearson's R value), set 1 (lipid droplets; Fl/2226 cm^-1 channel): 0.50
correlation coefficient (Pearson's R value), set 2 (lipid droplets; Fl/2226 cm^-1 channel): 0.76

Compound: O=c1c(-c2ccccc2)c1-c1ccc(OCCC[P+](c2ccccc2)(c2ccccc2)c2ccccc2)cc1.[Br-] [Cyclo-Mito (7)]
uncaging signals in labeled live cells (live HeLa cells): did not produce any observable uncaging signals

Compound: Cc1ccc(S(=O)(=O)NCCCOc2cc(C)c(-c3c(-c4c(C)cc(C)cc4C)c3=O)c(C)c2)cc1 [Me-ER (14)]
targeting, photoactivation and imaging performances (endoplasmic reticulum): highly specific targeting
correlation coefficient (Pearson's R value), set 1 (endoplasmic reticulum; [5]): 0.86
correlation coefficient (Pearson's R value), set 2 (endoplasmic reticulum; [5]): 0.80
correlation coefficient (Pearson's R value), set 3 (endoplasmic reticulum; [5]): 0.90

Compound: Cc1cc(C)c(-c2c(-c3c(C)cc(OCCOCCOCCCCCCCl)cc3C)c2=O)c(C)c1 [Me-LD (15)]
correlation coefficient (Pearson's R value), set 1 (lipid droplets; Fl/2205 cm^-1 channel): 0.54
correlation coefficient (Pearson's R value), set 2 (lipid droplets; Fl/2205 cm^-1 channel): 0.54
correlation coefficient (Pearson's R value), set 3 (lipid droplets; Fl/2205 cm^-1 channel): 0.50

Compound: Cc1cc(C)c(-c2c(-c3c(C)cc(OCCN(C)C)cc3C)c2=O)c(C)c1 [Me-Lyso (13)]
correlation coefficient (Pearson's R value), set 1 (lysosomes; [6]): 0.60
correlation coefficient (Pearson's R value), set 2 (lysosomes; [6]): 0.67
correlation coefficient (Pearson's R value), set 3 (lysosomes; [6]): 0.62
lysosomes targeting (co-localization) (lysosomes; live cells co-labeled with Lysoview 488): desired co-localization

Continued, in another order:

Raman Peak [1]: 2226 cm⁻¹
Abs [2]: 283 nm
εabs [2]: 32300 M⁻¹ cm⁻¹
Compound: C(#Cc1ccccc1)c1ccccc1 [1-yne (2), diphenylacetylene]

RIE (relative Raman intensity to EdU) [1]: 7.5
Raman Peak [1]: 2218 cm⁻¹
Abs [2]: 324 nm
εabs [2]: 32400 M⁻¹ cm⁻¹
Compound: O=c1c(C#Cc2ccccc2)c1-c1ccccc1 [2-cyclo (3), 2-phenyl-3-(phenylethynyl)cycloprop-2-en-1-one]
uncaging kinetics k ([3]; 365 nm illumination (15 mW/cm^2), increase of alkyne peak 2226 cm^-1): 0.020 s⁻¹
uncaging kinetics, fold faster than 1-cyclo (1) ([3]; 365 nm lamp illumination): about 5 fold

RIE (relative Raman intensity to EdU) [1]: 13
Raman Peak [1]: 2194 cm⁻¹
Abs [2]: 371 nm
εabs [2]: 25500 M⁻¹ cm⁻¹
Compound: O=c1c(C#Cc2ccccc2)c(C#Cc2ccccc2)c1=O [3-cyclo (5), 3,4-Bis(phenylethynyl)-3-cyclobutene-1,2-dione]

time stable to cysteine [4]: over 48 hours
alkyne Raman peak / SRS channel after uncaging ([1]; organelle probes after UV / 405 nm uncaging): 2205 cm⁻¹
Compound: Cc1cc(C)c(-c2c(-c3c(C)cc(OCCC[P+](c4ccccc4)(c4ccccc4)c4ccccc4)cc3C)c2=O)c(C)c1 [Me-Mito (12)]
correlation coefficient (Pearson's R value), set 1 (mitochondria; [7]): 0.85
correlation coefficient (Pearson's R value), set 2 (mitochondria; [7]): 0.82
correlation coefficient (Pearson's R value), set 3 (mitochondria; [7]): 0.88
SRS imaging at the alkyne channel after photoactivation (mitochondria; two minutes of 405 nm laser illumination, 2205 cm^-1): bright mitochondria pattern

time stable to cysteine [4]: ≥ 24 h
Compound: Cc1cc(C)c(-c2c(-c3c(C)cc(O)cc3C)c2=O)c(C)c1 [compound 8]

RIE (relative Raman intensity to EdU) [1]: 1.8
Raman Peak [1]: 2171 cm⁻¹
Abs [2]: 323 nm
εabs [2]: 24200 M⁻¹ cm⁻¹
Compound: dibenzocyclooctynes [DIBO, reference compound]
